US10322132B2, “Prevention or treatment of uratic or gouty diseases” (SHANTON PHARMA CO., LTD., priority 2015, dated 2019)

Experiments:
[1] = system: MSU-induced gouty arthritis; assay: Pain value in rats with gouty arthritis (electronic Von Frey pain threshold detector); assay type: in vivo, Male Wistar rats; conditions: for Pain value: Example 5, 15 mg/kg subcutaneous, left foot, Von Frey; for effect on pain values in the test rats (in words): Example 5, compared with the model group
Description: The rats with gouty arthritis were placed in a metabolic cage, and the palm center of the left foot of each rat was irritated with an electronic Von Frey pain threshold detector. The maximum stress value was recorded when each rat withdrew its foot, and the value was the pain value of that rat.

IFNγ = assay: ConA-induced IFNγ release; assay type: in vivo, Male C57BL/6 mice; conditions: for inhibition (%): IFN-γ in serum vs model group, 20 mg/kg subcutaneous; for effect on content of IFNγ in the serum of the test mice (in words): compared with the model group; for Content of IFN-γ: serum, 20 mg/kg subcutaneous 30 min before ConA 15 mg/kg tail vein, 3 h after ConA
Description: The experiment was conducted by reference to Dalya R. Soondl, Elisa Bjørgo, etc. PI3K p110δ regulates T cell cytokine production during primary and secondary immune responses in mice and humans. Blood. Author manuscript; available in PMC 2013 Mar. 11; and Gabriele Sass, Sonja Heinlein, etc. CYTOKINE EXPRESSION IN THREE MOUSE MODELS OF EXPERIMENTAL HEPATITIS. CYTOKINE, Vol. 19, No. 3 (7 Aug.), 2002: pp 115-120.
The C57BL/6 mice were raised in the SPF-grade animal room for 1 week, and were then randomly divided into the corresponding model group and the administration groups according to the body weight. The […] were administered with ConA by the tail vein injection at a dose of 15 mg/kg 30 min after the administration of the solvent or the test samples by subcutaneous injection at a dose of 20 mg/kg. After the mice were anesthetized with sodium pentobarbital (45 mg/kg by intraperitoneal injection) 3 h after administration of ConA, the blood was collected by cardiac puncture. The blood was placed in the centrifuge tube without anticoagulant and left still at room temperature. One hour later, the blood was centrifuged. The serum was extracted and stored at −80° C. The content of IFNγ (γ-interferon) in the serum was detected by a Mouse IFNγ Elisa

serum uric acid = assay: Uric acid-lowering experiment in cynomolgus monkeys; assay type: in vivo; design: Reduction rate of serum uric acid: concentration or dose not given beside the values; conditions: for effect on serum uric acid levels in the test monkeys (in words): compared to the levels measured before administration; for Reduction rate of serum uric acid / Content of serum uric acid: intravenous
Description: The experiment was done by reference to Komoriya K, Osada Y, Hasegawa M, Horiuchi H, Kondo S, Couch R C, Griffin T B. Hypouricemic effect of allopurinol and the novel xanthine oxidase inhibitor TEI-6720 in chimpanzees. Eur J Pharmacol. 1993 Dec. 21; 250(3): 455-60.
Each compound was tested in three non-naïve cynomolgus monkeys (1 #, 2 # and 3 #), wherein the monkeys were administered with test samples by intravenous injection. Blood was collected from the vein before administration and 1 h, 3 h, 6 h and 24 h after administration. The blood was left still at room temperature. The serum was collected by centrifugation. The content of uric acid in serum was measured. Reduction rate of serum uric acid=(average uric acid content before administration−average uric acid content after administration)/average uric acid content before administration*100%.

[2] = Pharmacokinetics experiment in cynomolgus monkeys, intravenous; assay type: in vivo, cynomolgus monkeys (Macaca fascicularis); conditions: 5 mg/kg, Mean ± SD, n = 3
Description: Three non-naïve cynomolgus monkeys were administered with test compounds A, B and D at a dose of 5 mg/kg by intravenous injection and with test compound C at a dose of 3 mg/kg by intravenous injection, with one compound being tested at a time. Blood was collected from the vein before administration and 1 h, 3 h, 6 h and 24 h after administration, and plasma was isolated. The plasma was analyzed by a 4000 Q Trap LC-MS/MS instrument. The concentrations of the test samples were output by Analyst 1.6.1 from AB Company. The parameters ( ) such as the mean, standard deviation, and coefficient of variation were calculated using Microsoft Excel, wherein the values directly output by Analyst 1.6.1 requires no calculation. PK parameters were calculated using Pharsight Phoenix 6.2 software (NCA model).

[3] = system: MSU-induced gouty arthritis; assay: MSU-induced gouty arthritis, toe volume; assay type: in vivo, Male Wistar rats; conditions: for Inhibition of toe volume change (%) / Toe volume change: 9 h after MSU; for Inhibition of toe volume change (%): vs model group; for effect on increase of the toe volumes in the test rats (in words): compared with the model group
Description: The experiment was done by reference to Hsin-Pai Lee, Shi-Ying Huang, Yen-You Lin. Soft Coral-Derived Lemnalol Alleviates Monosodium Urate-Induced Gouty Arthritis in Rats by Inhibiting Leukocyte Infiltration and iNOS, COX-2 and c-Fos Protein Expression. […] 2013, 11, 99-113.
One gram of uric acid was weighed, introduced into 200 mL of boiling water and heated. Then, NaOH (2 mol/L) was added until pH reached 9. The solution became clear, and was cooled at room temperature and then left still overnight. MSU was obtained after filtration, which was dried at 60° C. for 24 h and then sterilized at a high temperature of 180° C.
(§1) The toe volumes of the rats were measured one day prior to the experiment. The rats were administered with the solvent by subcutaneous injection in the model group at a dose of 5 mL/kg, while the rats were administered with test samples by subcutaneous injection in administration groups at a dose of 5 mg/kg. Rats were anesthetized immediately after administration and were injected with 0.09 mL of MSU suspension into the joint cavity of the left ankle. The volume of the left toe was measured in rats 9 h after the injection of MSU into the ankle joint cavity.
as §1, with “dose of 15 mL/kg, while” for “dose of 5 mL/kg, while”, “dose of 15 mg/kg or 10 mg/kg. Rats” for “dose of 5 mg/kg. Rats”
The toe volumes of rats were measured one day prior to the experiment. The rats were administered with the solvent by subcutaneous injection in the model group at a dose of 15 mL/kg, while the rats were administered with the test sample by subcutaneous injection in administration group at a dose of 15 mg/kg. Rats were anesthetized immediately after administration and were injected with 0.09 mL of MSU suspension into the joint cavity of the left ankle. The volume of the left toe in each rat was measured 9 h after the injection of MSU into the ankle joint cavity.

[4] = 3 h after administration vs before administration, animal 1#
[5] = 3 h after administration vs before administration, animal 2#
[6] = 3 h after administration vs before administration, mean
[7] = 3 h after administration, animal 1#
[8] = 3 h after administration, animal 2#
[9] = Example 5, 15 mg/kg or 10 mg/kg
[10] = Example 5, 15 mg/kg subcutaneous

Row | Structure (SMILES) | Pain value [1] | effect on pain values in the test rats (in words) [1] | inhibition (%) (IFNγ) | effect on content of IFNγ in the serum of the test mice (in words) (IFNγ) | Content of IFN-γ (IFNγ) | effect on serum uric acid levels in the test monkeys (in words) (serum uric acid) | Reduction rate of serum uric acid (serum uric acid; [4]) | Reduction rate of serum uric acid (serum uric acid; [5]) | Reduction rate of serum uric acid (serum uric acid; [6]) | Content of serum uric acid (serum uric acid; [7]) | Content of serum uric acid (serum uric acid; [8]) | Content of serum uric acid (serum uric acid; 3 h after administration, mean) | t1/2z [2] | effect on increase of the toe volumes in the test rats (in words) [3, 9] | Toe volume change [3, 10] | Inhibition of toe volume change (%) [3, 10] | other results
1 | CCCCCn1c(=O)[nH]c(=O)c2[nH]c(Cl)nc21 [Compound A, 8-chloro-3-pentyl-3,7-dihydro-1H-purine-2,6-dione] | 47.51 g | significantly increase | 38.3% | significantly reduce | 2025 pg/mL | significantly reduce | 18.5% | 38.0% | 22.8% | 61.9 µmol/L | 57.0 µmol/L | 59.6 µmol/L | 14.55 ± 6.69 h | significantly inhibit | 0.264 mL | 34.7% | Reduction rate of serum uric acid (serum uric acid; 3 h after administration vs before administration, animal 3#): 5.98%; Content of serum uric acid (serum uric acid; 3 h after administration, animal 3#): 59.9 µmol/L; Reduction rate of serum uric acid (serum uric acid; 6 h after administration vs before administration, animal 1#): 10.9%; Reduction rate of serum uric acid (serum uric acid; 6 h after administration vs before administration, animal 2#): 48.2%; Reduction rate of serum uric acid (serum uric acid; 6 h after administration vs before administration, animal 3#): 20.9%; Reduction rate of serum uric acid (serum uric acid; 6 h after administration vs before administration, mean): 28.5%; Content of serum uric acid (serum uric acid; 6 h after administration, animal 1#): 67.6 µmol/L; Content of serum uric acid (serum uric acid; 6 h after administration, animal 2#): 47.6 µmol/L; Content of serum uric acid (serum uric acid; 6 h after administration, animal 3#): 50.4 µmol/L; Content of serum uric acid (serum uric acid; 6 h after administration, mean): 55.2 µmol/L; Change of toe volume ([3]; Example 4, 5 mg/kg subcutaneous, 9 h after MSU injection into left ankle joint cavity): 0.416 mL; Inhibition of toe volume change (%) ([3]; Example 4, 5 mg/kg subcutaneous): 17.5%; effect on increase of the toe volumes in the test rats (in words) ([3]; Example 4, 5 mg/kg): significantly inhibit
2 | CCCCCn1c(=O)n(C)c(=O)c2[nH]c(Cl)nc21 [Compound D, 8-chloro-1-methyl-3-pentyl-3,7-dihydro-1H-purine-2,6-dione] | 43.10 g | significantly increase | 35.8% | significantly reduce | 2108 pg/mL | significantly reduce | 14.3% | 13.6% | 13.9% | 49.6 µmol/L | 47.1 µmol/L | 48.4 µmol/L | 5.90 ± 0.42 h | significantly inhibit | 0.232 mL | 42.6% | 
